Results reported in patent US9186353B2, “Treatment of osteoarthritis pain” (AbbVie Inc., priority 2009, dated 2015).

Columns and labels:
[1] = system: adult osteoarthritic rats; assay: MIA-OA osteoarthritis pain model, hind limb grip force; format: in vivo, Male Sprague Dawley rats; details: Rattus norvegicus, 480 h, read-out: % Effect; for inhibition in vivo at 1 mg/kg: 1 mg/kg i.p.; for inhibition in vivo at 3 mg/kg: 3 mg/kg i.p.
Method: This model, the MIA-OA model is well known to those skilled in the art. A general review of various models of pain is found in Joshi and Honore, Expert Opinion in Drug Discovery (2004) 1, pp. 323-334, and in the book ‘Drug Discovery and Evaluation, 2nd edition’ (H. Gerhard Vogel, editor; Springer-Verlag, New York, 2002; pp. 702-706).
Pain behavior was assessed by measurement of hind limb grip force (GF) in adult osteoarthritic rats. Male Sprague Dawley rats, 325-350 g, were injected in the unilateral knee join with a single intra-articular injection of sodium monoiodoacetate (MIA). All rats were tested at 20 days following MIA injection. A behavioral measure of activity-induced pain was carried out. Measurements of the peak hind limb grip force were conducted by recording the maximum compressive force (CFmax), in grams of force, exerted on a hind limb strain gauge setup, in a commercially available grip force measurement system (Columbus Instruments, Columbus, Ohio).
During testing, each rat was gently restrained by grasping it around its rib cage and then allowed to grasp the wire mesh frame attached to the strain gauge. The experimenter then moved the animal in a rostral-to-caudal direction until the grip was broken. Each rat was sequentially tested twice at approximately 2-3 min interval to obtain a raw mean grip force (CFmax). This raw mean grip force data was in turn converted to a maximum hindlimb cumulative compressive force (CFmax), as the grams of force/kg of body weight, for each animal.
For evaluating the compound effects, the hind limb grip force was conducted 20 days following the intra-articular injection of MIA. A group of age-matched naïve (not injected with MIA) animals was added as a comparator to the drug-dosed groups. The vehicle control response for each group of MIA-treated animals was defined as the 0% response (0% effect), whereas the naïve control group was defined as the normal response and as 100% effect. The % effects for each dose group was expressed as % return of response to normalcy, compared to the naïve group. That is, the % effect=(Treatment CFmax−Vehicle CFmax)/Vehicle CFmax]×100). Higher % effect numbers indicate increased relief from the pain in the model, with 100% indicating a return to the level of response seen in normal (non-osteoarthritic) animals. All experiments evaluating drug effects in this model were conducted in a randomized blinded fashion.
Male Sprague Dawley rats (250-300 g body weight) obtained from Charles River Laboratories (Wilmington, Mass.) were used for all experiments, unless indicated otherwise. The animals were housed in Association for Assessment and Accreditation of Laboratory Animal Care (AAALAC) approved facilities at Abbott Laboratories in a temperature-regulated environment under a controlled 12-h light-dark cycle, with lights on at 6:00 a.m. Food and water were available ad libitum at all times except during testing. All testing was done following procedures outlined in protocols approved by Abbott Laboratories' Institutional Animal Care and Use Committee.

[2] = ip, hind limb grip force (CFmax) 20 days after intra-articular MIA, % return to normalcy vs naive, mean ± SEM

| SMILES | inhibition in vivo at 30 mg/kg ([1]; 30 mg/kg, positive control, hind limb grip force 20 days after MIA) | inhibition in vivo at 1 mg/kg [1, 2] | inhibition in vivo at 3 mg/kg [1, 2] | melting point | inhibition in vivo at 10 mg/kg ([1]; ip, 10 mg/kg i.p., hind limb grip force (CFmax) 20 days after intra-articular MIA, % return to normalcy vs naive, mean ± SEM) |
| --- | --- | --- | --- | --- | --- |
| Cc1ccc(-c2cc(C(F)(F)F)nn2-c2ccc(S(N)(=O)=O)cc2)cc1 [celecoxib, reference compound] | 89% |  |  |  |  |
| O=C1[C@@H](O)CCN1c1ccc2nc(C3CC(N4CCCCC4)C3)sc2c1 (stereo partly drawn) [Example 3, (S)-3-Hydroxy-1-[2-(3-piperidin-1-yl-cyclobutyl)-benzothiazol-6-yl]-pyrrolidin-2-one] |  | 26 ± 2% | 53 ± 5% |  |  |
| CNC(=O)c1cnc(Oc2ccc3c(c2)CCN(C2CCC2)CC3)cn1 [Example 6, (5-(3-cyclobutyl-2,3,4,5-tetrahydro-1H-benzo[d]azepin-7-yloxy)-N-methylpyrazine-2-carboxamide), reference compound] |  | 65 ± 9% | 90 ± 17% |  |  |
| CNC(=O)c1ccc(Oc2ccc3c(c2)CCN(C2CCC2)CC3)nc1 [Example 5, (6-(3-Cyclobutyl-2,3,4,5-tetrahydro-1H-benzo[d]azepin-7-yloxy)-N-methyl-nicotinamide), reference compound] |  | 54 ± 5% | 74 ± 4% |  |  |
| O=c1cccnn1-c1ccc2nc([C@H]3C[C@@H](N4CCCCC4)C3)sc2c1 [Example 1, Cis-2-[2-(3-piperidin-1-ylcyclobutyl)-1,3-benzothiazol-6-yl]pyridazin-3(2H)-one] |  | 51 ± 6% | 79 ± 6% | 127 to 128 °C |  |
| CC(C)N1CCCN(C(=O)C2CCN(c3ccc(C(F)(F)F)nc3)CC2)CC1 [Example 7, (4-isopropyl-1,4-diazepan-1-yl)(1-(6-(trifluoromethyl)pyridin-3-yl)piperidin-4-yl)methanone, reference compound] |  | 51 ± 8% | 66 ± 6% |  |  |
| C[C@H]1CCCN1C[C@H]1C[C@@H]1c1ccc(-n2ncccc2=O)cc1 [Example 8, 2-[4-((1S,2S)-2-{[(2S)-2-methylpyrrolidin-1-yl]methyl}cyclopropyl)phenyl]pyridazin-3(2H)-one] |  | 47 ± 6% | 68 ± 4% |  | 82 ± 5% |
| O=c1cccnn1-c1ccc2nc([C@H]3C[C@H](N4CCCCC4)C3)sc2c1 [Example 2, Trans-2-[2-(3-piperidin-1-ylcyclobutyl)-1,3-benzothiazol-6-yl]pyridazin-3(2H)-one] |  |  | 43 ± 13% |  |  |
| C[C@@H]1CCCN1CCc1cc2cc(-c3ccc(C#N)cc3)ccc2o1 [Example 4, (4-(2-(2-[2(R)-Methyl-1-pyrrolidinyl]ethyl)-1-benzofuran-5-yl)benzonitrile)] |  | 40 ± 4% | 56 ± 6% |  |  |
